# Test system: Jurkat cells expressing TMEM16F-RFP
# Assay: TIRF live imaging of TMEM16F-positive vesicle movement at the TCR activation site
# Format: cell-based
# Conditions: Jurkat cells pretreated with 1 μM inhibitor for 30 min, stimulated on αCD3-coated coverslips, TIRF microscopy (FIGS. 7D, 7E)
# Text: TMEM16F is recruited to the immunological synapse and resides in late endosomes. To elucidate the molecular mechanism how TMEM16F controls T cell activation, its cellular localization and function were tracked. To this end, T cells transduced with fluorescent TMEM16F were cocultured with antigen-presenting B cells. […] Of note, TMEM16F appeared mainly in intracellular structures instead of the plasma membrane (FIG. 7A). […] In order to test the mechanics of TMEM16F-positive vesicle movement, TIRF live imaging was performed while modulating the functions of the cytoskeleton. […] By contrast, treatment with nocodazole that disrupts the microtubule network reduced migration of TMEM16F vesicles, indicating the movement of TMEM16F was largely mediated by microtubules but not actin (FIGS. 7D and 7E).
# TIRF Microscopy. Sample preparation for TIRF microscopy was performed as previously reported with minor modifications (Bunnell et al., 2003). […]
# Image Processing. […] The number of TMEM16F-positive spots was plotted using Prism 6.0™ Quantifications of LBPA-positive vesicles, LAT-GFP, and SH2-ZAP70-mCherry were done similarly. Intensity of SH2-ZAP70-mCherry was determined using intensity vs. time plug-in. For the colocalization of TMEM16F and Rab proteins, fluorescence intensity for each protein was measured on a line manually drawn along TMEM16F-positive vesicles, and values (pixel) were plotted. […]
smiles,measurement,value
COC(=O)Nc1nc2ccc(C(=O)c3cccs3)cc2[nH]1 [nocodazole],recruitment of TMEM16F to the T cell activation site / migration of TMEM16F vesicles,reduced
Cc1ccc2c(c1)C(=O)C1(O)CCN(c3ccccc3)C1=N2 (centres unmarked) [blebbistatin],recruitment of TMEM16F to the T cell activation site / migration of TMEM16F vesicles,did not alter
